Reference: publication PMC8037182, “Solvothermal Synthesis of Multiple Dihydropyrimidinones at a Time as Inhibitors of Eg5” (Molecules, 2021)
Values joined by “and” are separate entries in the source; they are usually repeats but may differ in a detail not shown here. Equal entries are not always repeated.

How the values were obtained:
T24 cell line = experiment: Cytotoxicity MTS assay, T24 cell line; type: cell-based; conditions: for OD490 Mean / OD490 Well 1 / OD490 Well 2 / OD490 Well 3: T24 cell line;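 as to OD490 Mean: blank control wells received 0.025% DMSO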;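 as to OD490 Well 1: blank control wells received 0.025% DMSO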;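 as to OD490 Well 2: blank control wells received 0.025% DMSO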;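 as to OD490 Well 3: blank control wells received 0.025% DMSO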
How it was run: (§1)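 MTS read-out (absorbance 490 nm after 2 h reagent at 37 °C) following 24 h compound exposure at 0.5–100 µM final, 0.025% DMSO as blank. Plated at 1000 cells/well and pre-incubated 24 h; IC50 derived by non-linear regression of viability against concentration, from three independent duplicate runs.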

L929 cell line = experiment: Cytotoxicity MTS assay, L929 cell line; type: cell-based; conditions: for OD490 values, Mean / OD490 values, Well 1 / OD490 values, Well 2 / OD490 values, Well 3 / OD490, single wells / OD490 Mean: L929 cell line; for OD490, single wells / OD490 Mean: MTS; for OD490, single wells: Well 1-3; for OD490 Mean: mean of 3 wells
How it was run: as §1

CCOC(=O)C1=C(C)NC(=S)NC1c1cccc(O)c1 (centres unmarked) [Monastrol, monastrol, reference compound]
IC50 (T24 cell line; Homo sapiens, T-24, MTS assay, 24 h exposure): 129 µM | OD490 Mean (T24 cell line; 0.5μM, first assay): 1.5184 | OD490 Well 1 (T24 cell line; 0.5μM, first assay): 1.3936 | OD490 Well 2 (T24 cell line; 0.5μM, first assay): 1.6757 | OD490 Well 3 (T24 cell line; 0.5μM, first assay): 1.4858 | OD490 Mean (T24 cell line; 0.5μM, second assay): 1.7880 | OD490 Well 1 (T24 cell line; 0.5μM, second assay): 1.9582 | OD490 Well 2 (T24 cell line; 0.5μM, second assay): 1.7425 | OD490 Well 3 (T24 cell line; 0.5μM, second assay): 1.6632 | OD490 Mean (T24 cell line; 0.5μM, third assay): 1.7701 | OD490 Well 1 (T24 cell line; 0.5μM, third assay): 1.9582 | OD490 Well 2 (T24 cell line; 0.5μM, third assay): 1.6852 | OD490 Well 3 (T24 cell line; 0.5μM, third assay): 1.6669 | OD490 Mean (T24 cell line; 1μM, first assay): 1.8525 | OD490 Well 1 (T24 cell line; 1μM, first assay): 1.8866 | OD490 Well 2 (T24 cell line; 1μM, first assay): 1.8580 | OD490 Well 3 (T24 cell line; 1μM, first assay): 1.8130 | OD490 Mean (T24 cell line; 1μM, second assay): 1.7956 | OD490 Well 1 (T24 cell line; 1μM, second assay): 1.8475 | OD490 Well 2 (T24 cell line; 1μM, second assay): 1.7952 | OD490 Well 3 (T24 cell line; 1μM, second assay): 1.7442 | OD490 Mean (T24 cell line; 1μM, third assay): 1.6875 | OD490 Well 1 (T24 cell line; 1μM, third assay): 1.4752 | OD490 Well 2 (T24 cell line; 1μM, third assay): 1.8852 | OD490 Well 3 (T24 cell line; 1μM, third assay): 1.7020 | OD490 Mean (T24 cell line; 10μM, first assay): 1.8245 | OD490 Well 1 (T24 cell line; 10μM, first assay): 1.8141 | OD490 Well 2 (T24 cell line; 10μM, first assay): 1.7506 | OD490 Well 3 (T24 cell line; 10μM, first assay): 1.9088 | OD490 Mean (T24 cell line; 10μM, second assay): 1.6766 | OD490 Well 1 (T24 cell line; 10μM, second assay): 1.5874 | OD490 Well 2 (T24 cell line; 10μM, second assay): 1.5998 | OD490 Well 3 (T24 cell line; 10μM, second assay): 1.8425 | OD490 Mean (T24 cell line; 10μM, third assay): 1.6451 | OD490 Well 1 (T24 cell line; 10μM, third assay): 1.7425 | OD490 Well 2 (T24 cell line; 10μM, third assay): 1.6625 | OD490 Well 3 (T24 cell line; 10μM, third assay): 1.5302 | OD490 Mean (T24 cell line; 25μM, first assay): 1.7708 | OD490 Well 1 (T24 cell line; 25μM, first assay): 1.7726 | OD490 Well 2 (T24 cell line; 25μM, first assay): 1.7434 | OD490 Well 3 (T24 cell line; 25μM, first assay): 1.7965 | OD490 Mean (T24 cell line; 25μM, second assay): 1.7004 | OD490 Well 1 (T24 cell line; 25μM, second assay): 1.7416 | OD490 Well 2 (T24 cell line; 25μM, second assay): 1.7723 | OD490 Well 3 (T24 cell line; 25μM, second assay): 1.5874 | OD490 Mean (T24 cell line; 25μM, third assay): 1.7296 | OD490 Well 1 (T24 cell line; 25μM, third assay): 1.7711 | OD490 Well 2 (T24 cell line; 25μM, third assay): 1.6854 | OD490 Well 3 (T24 cell line; 25μM, third assay): 1.7324 | OD490 Mean (T24 cell line; 50μM, first assay): 1.5876 | OD490 Well 1 (T24 cell line; 50μM, first assay): 1.5372 | OD490 Well 2 (T24 cell line; 50μM, first assay): 1.6410 | OD490 Well 3 (T24 cell line; 50μM, first assay): 1.5845 | OD490 Mean (T24 cell line; 50μM, second assay): 1.6611 | OD490 Well 1 (T24 cell line; 50μM, second assay): 1.6325 | OD490 Well 2 (T24 cell line; 50μM, second assay): 1.6666 | OD490 Well 3 (T24 cell line; 50μM, second assay): 1.6841 | OD490 Mean (T24 cell line; 50μM, third assay): 1.4371 | OD490 Well 1 (T24 cell line; 50μM, third assay): 1.3024 | OD490 Well 2 (T24 cell line; 50μM, third assay): 1.5270 | OD490 Well 3 (T24 cell line; 50μM, third assay): 1.4820 | OD490 Mean (T24 cell line; 100μM, first assay): 1.3979 | OD490 Well 1 (T24 cell line; 100μM, first assay): 1.3668 | OD490 Well 2 (T24 cell line; 100μM, first assay): 1.4841 | OD490 Well 3 (T24 cell line; 100μM, first assay): 1.3428 | OD490 Mean (T24 cell line; 100μM, second assay): 1.3537 | OD490 Well 1 (T24 cell line; 100μM, second assay): 1.3658 | OD490 Well 2 (T24 cell line; 100μM, second assay): 1.3365 | OD490 Well 3 (T24 cell line; 100μM, second assay): 1.3587 | OD490 Mean (T24 cell line; 100μM, third assay): 1.3785 | OD490 Well 1 (T24 cell line; 100μM, third assay): 1.4550 | OD490 Well 2 (T24 cell line; 100μM, third assay): 1.3885 | OD490 Well 3 (T24 cell line; 100μM, third assay): 1.2920 | OD490 values, Mean (L929 cell line; 50μM, first assay): 1.3431 | OD490 values, Well 1 (L929 cell line; 50μM, first assay): 1.3844 | OD490 values, Well 2 (L929 cell line; 50μM, first assay): 1.2943 | OD490 values, Well 3 (L929 cell line; 50μM, first assay): 1.3505 | OD490 values, Mean (L929 cell line; 50μM, second assay): 1.3490 | OD490 values, Well 1 (L929 cell line; 50μM, second assay): 1.3355 | OD490 values, Well 2 (L929 cell line; 50μM, second assay): 1.2894 | OD490 values, Well 3 (L929 cell line; 50μM, second assay): 1.4221 | OD490 values, Mean (L929 cell line; 50μM, third assay): 1.5704 | OD490 values, Well 1 (L929 cell line; 50μM, third assay): 1.5524 | OD490 values, Well 2 (L929 cell line; 50μM, third assay): 1.4714 | OD490 values, Well 3 (L929 cell line; 50μM, third assay): 1.6874 | OD490 values, Mean (L929 cell line; 100μM, first assay): 1.0251 | OD490 values, Well 1 (L929 cell line; 100μM, first assay): 1.0639 | OD490 values, Well 2 (L929 cell line; 100μM, first assay): 1.0037 | OD490 values, Well 3 (L929 cell line; 100μM, first assay): 1.0076 | OD490 values, Mean (L929 cell line; 100μM, second assay): 1.2469 | OD490 values, Well 1 (L929 cell line; 100μM, second assay): 1.2354 | OD490 values, Well 2 (L929 cell line; 100μM, second assay): 1.2789 | OD490 values, Well 3 (L929 cell line; 100μM, second assay): 1.2265 | OD490 values, Mean (L929 cell line; 100μM, third assay): 1.4401 | OD490 values, Well 1 (L929 cell line; 100μM, third assay): 1.4541 | OD490 values, Well 2 (L929 cell line; 100μM, third assay): 1.4710 | OD490 values, Well 3 (L929 cell line; 100μM, third assay): 1.3952 | OD490, single wells (L929 cell line; 1μM, first assay): 1.2759 and 1.1464 and 1.2212 | OD490 Mean (L929 cell line; 1μM, first assay): 1.2145 | OD490, single wells (L929 cell line; 1μM, second assay): 1.3847 and 1.2145 and 1.3654 | OD490 Mean (L929 cell line; 1μM, second assay): 1.3215 | OD490, single wells (L929 cell line; 1μM, third assay): 1.5474 and 1.5368 and 1.4987 | OD490 Mean (L929 cell line; 1μM, third assay): 1.5276 | OD490, single wells (L929 cell line; 1.5μM, first assay): 1.1568 and 1.0812 and 1.2095 | OD490 Mean (L929 cell line; 1.5μM, first assay): 1.1492 | OD490, single wells (L929 cell line; 1.5μM, second assay): 1.2478 and 1.3254 and 1.2897 | OD490 Mean (L929 cell line; 1.5μM, second assay): 1.2876 | OD490, single wells (L929 cell line; 1.5μM, third assay): 1.5823 and 1.5874 and 1.5332 | OD490 Mean (L929 cell line; 1.5μM, third assay): 1.5676 | OD490, single wells (L929 cell line; 10μM, first assay): 1.1741 and 1.1023 and 1.0651 | OD490 Mean (L929 cell line; 10μM, first assay): 1.1138 | OD490, single wells (L929 cell line; 10μM, second assay): 1.3582 and 1.6874 and 1.3354 | OD490 Mean (L929 cell line; 10μM, second assay): 1.4603 | OD490, single wells (L929 cell line; 10μM, third assay): 1.4784 and 1.4585 and 1.6874 | OD490 Mean (L929 cell line; 10μM, third assay): 1.5414 | OD490, single wells (L929 cell line; 25μM, first assay): 1.2192 and 1.1415 and 1.0377 | OD490 Mean (L929 cell line; 25μM, first assay): 1.1328 | OD490, single wells (L929 cell line; 25μM, second assay): 1.2214 and 1.3652 | OD490 Mean (L929 cell line; 25μM, second assay): 1.3173 | OD490, single wells (L929 cell line; 25μM, third assay): 1.6324 and 1.5241 and 1.7241 | OD490 Mean (L929 cell line; 25μM, third assay): 1.6269 | IC50 (L929 cell line; Mus musculus, L929, MTS assay, 24 h exposure, ordinary fibroblast, not cancer cells): > 150 µM
